Twelve molecules from US7381841B2, “Pentafluorosulfanylphenyl-substituted benzoylguanidines, processes for their preparation, their use as medicament or diagnostic aid, and medicament comprising them” (Sanofi-Aventis Deutschland GmbH, priority 2003, dated 2008) can be followed below.

By IC50 is commonly meant the point on the concentration scale where inhibition reaches its midpoint. For orientation: half-life means how long it takes for the measured level to halve. In general, melting point refers to the temperature, or range, at which the solid turns liquid.

Molecules are shown by their SMILES.

One series deals with T1, human NHE-1 (Homo sapiens, UniProt P19634).
T1 construct: expressed in transfected cells; host or cells: LAP-1 (parental cell line without endogenous NHE activity), G418-selected transfectants
T1 sequence (P19634 whole entry): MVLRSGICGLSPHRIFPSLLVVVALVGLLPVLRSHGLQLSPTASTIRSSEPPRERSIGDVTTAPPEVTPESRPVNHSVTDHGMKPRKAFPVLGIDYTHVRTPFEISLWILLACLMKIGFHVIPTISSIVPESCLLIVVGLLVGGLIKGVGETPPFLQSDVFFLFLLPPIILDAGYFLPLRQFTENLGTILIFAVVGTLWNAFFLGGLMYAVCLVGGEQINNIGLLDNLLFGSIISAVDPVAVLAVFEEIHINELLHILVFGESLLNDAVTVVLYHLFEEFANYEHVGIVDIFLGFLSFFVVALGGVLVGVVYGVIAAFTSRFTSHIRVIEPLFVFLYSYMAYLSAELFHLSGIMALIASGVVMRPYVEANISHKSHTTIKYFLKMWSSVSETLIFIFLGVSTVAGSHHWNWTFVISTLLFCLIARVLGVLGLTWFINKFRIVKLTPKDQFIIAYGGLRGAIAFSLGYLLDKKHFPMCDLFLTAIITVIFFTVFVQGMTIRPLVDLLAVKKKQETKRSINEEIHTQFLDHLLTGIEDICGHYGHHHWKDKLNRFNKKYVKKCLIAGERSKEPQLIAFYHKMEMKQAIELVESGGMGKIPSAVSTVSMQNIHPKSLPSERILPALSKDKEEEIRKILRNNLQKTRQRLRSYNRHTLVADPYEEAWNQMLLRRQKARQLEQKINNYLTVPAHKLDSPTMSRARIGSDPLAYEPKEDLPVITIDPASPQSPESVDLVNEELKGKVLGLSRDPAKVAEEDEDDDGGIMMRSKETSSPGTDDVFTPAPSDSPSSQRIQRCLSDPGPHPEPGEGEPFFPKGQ
As to the kind of experiment: NHE-1 inhibition, FLIPR assay measuring recovery of pHi in transfected cell lines. Type of series: cell-based. Conditions: pHi recovery in transfected LAP-1 cell lines expressing human NHE-1, read-out: NHE1 inhibition IC50. As to the method: The NHE-1 inhibition IC50 was determined in an FLIPR assay by measurement of the recovery in pHi in transfected cell lines which express human NHE-1.
The assay was carried out in an FLIPR (fluorescent imaging plate reader) with black-walled 96-well microtiter plates with clear bases.
The growth medium for the transfected cells (Iscove+10% fetal calf serum) additionally contained G418 as selection antibiotic in order to ensure the presence of the transfected sequences.
The actual assay started with the removal of the growth medium and addition of 100 μl of loading buffer per well (5 μM BCECF-AM [2′,7′-bis(carboxyethyl)-5- (and -6-)carboxyfluorescein, acetoxymethyl ester] in 20 mM NH4Cl, 115 mM choline chloride, 1 mM MgCI2, 1 mM CaCI2, 5 mM KCI, 20 mM HEPES, 5 mM glucose; pH 7.4 [adjusted with KOH]). The cells were then incubated at 37° C. for 20 minutes. This incubation led to loading of the cells with the fluorescent dye whose fluorescence intensity depends on pHi, and with NH4Cl which makes the cells slightly alkaline. The nonfluorescent dye precursor BCECF-AM is, as ester, membrane-permeable. The actual dye BCECF is not membrane-permeable but is liberated inside cells by esterases.
After this incubation for 20 minutes, the loading buffer which contained NH4Cl and free BCECF-AM was removed by washing three times in a cell washer (Tecan Columbus) with in each case 400 μl of washing buffer (133.8 mM choline chloride, 4.7 mM KCI, 1.25 mM MgCI2, 1.25 mM CaCI2, 0.97 mM K2HPO4, 0.23 mM KH2PO4, 5 mM HEPES, 5 mM glucose; pH 7.4 [adjusted with KOH]). The residual volume remaining in the wells was 90 μl (50-125 μl possible). This washing step removed the free BCECF-AM and resulted, as a consequence of the removal of the external NH4^+ ions, in intracellular acidification (˜pHi 6.3-6.4).
This may eventually lead to cell death if it persists long enough.
It was important at this point that the washing buffer was sodium-free (<1 mM) because extracellular sodium ions would lead to an instantaneous recovery of the pHi through the activity of the cloned NHE isoforms.
It was likewise important for all the buffers used (loading buffer, washing buffer, recovery buffer) not to contain any HCO3^− ions, because the presence of bicarbonate would lead to activation of interfering bicarbonate-dependent pHi regulatory systems present in the parental LAP-1 cell line.
The microtiter plates with the acidified cells were then (up to 20 minutes after the acidification) transferred to the FLIPR. In the FLIPR, the intracellular fluorescent dye was excited by light with a wavelength of 488 nm generated by an argon laser, and the measured parameters (laser power, illumination time and aperture of the CCD camera incorporated in the FLIPR) were chosen so that the average fluorescence signal per well was between 30 000 and 35 000 relative fluorescence units.
The actual measurement in the FLIPR started with a photograph being taken by the CCD camera every two seconds under software control. After ten seconds, the recovery of the intracellular pH was initiated by adding 90 μl of recovery buffer (133.8 mM NaCl, 4.7 mM KCI, 1.25 mM MgCI2, 1.25 mM CaCI2, 0.97 mM K2HPO4, 0.23 mM KH2PO4, 10 mM HEPES, 5 mM glucose; pH 7.4 [adjusted with NaOH]) by means of the 96-well pipettor incorporated in the FLIPR.
Positive control wells (100% NHE activity) were those to which pure recovery buffer was added, while negative controls (0% NHE activity) received washing buffer. Recovery buffer with twice the concentration of test substance was added to all the other wells. Measurement in the FLIPR terminated after 60 measurements (two minutes).
The raw data are exported into the ActivityBase program. This program firstly calculates the NHE activities for each tested substance concentration and, from these, the IC50 values for the substances. […]

Series [1] in a line: In vivo pharmacokinetics, profiling with the "n in one method". Conditions: iv; fasting male beagle dog, single i.v. bolus into jugular vein, about 1 mg/kg of each substance, given together, plasma; read-out: Half-life t½ (converted). As to the method: In vivo pharmacokinetics—profiling with the “n in one method”
The exposure data and the half-life were determined as characteristic follows:
Two NHE-1 inhibiotors of the invention (example 1 and example 9) and a known NHE-1 reference subtance (cariporide)
[drawing 36] where dissolved in the slightly acidic aqueous medium (water, pH 4, adjusted with 1 M hydrochloric acid). The concentration of the aqueous formulation prepared in this way was about 1.5 mg of each substance per 1 g of solution. 10 ml of this formulation were administered once as bolus by means of a catheter into the jugular vein of a fasting male beagle dog (dose about 1 mg of each administered substance per kg of the dog's body weight). Blood samples were obtained by means of a second catheter after 5 min, 15 min, 30 min, 1 h, 2 h, 4 h, 8 h and 24 h, and heparinized plasma was prepared by centrifugation at 1000 G in appropriate plasma tubes.
The plasma samples were worked up and quantified by MS/MS after an HPLC separation. Simultaneous determination of a plurality of substances was possible with this method owing to its high specificity. The half-lives could be calculated using the WinNonlin computer program from the concentration-time plots (see FIG. 1) and compared with the half-life of the known NHE-1 reference substance. Since the various substances were measured in the same animal at the same time, the result was an accurate comparison of the compounds, and a ranking of the half-lives was possible.

For `Cc1cc(N(C)c2ccc(S(F)(F)(F)(F)F)cc2)c(S(C)(=O)=O)cc1C(=O)N=C(N)N` [Example 8, N-{5-Methanesulfonyl-2-methyl-4-[methyl-(4-pentafluorosulfanyl-phenyl)amino]benzoyl}guanidine], at human NHE-1, the IC50 is 3.7 nM.
Regarding `Cc1cc(N(C)c2cccc(S(F)(F)(F)(F)F)c2)c(S(C)(=O)=O)cc1C(=O)N=C(N)N` [Example 7, N-{5-Methanesulfonyl-2-methyl-4-[methyl-(3-pentafluorosulfanylphenyl)-amino]benzoyl}guanidine], the IC50 on human NHE-1 amounted to 14.5 nM.
Same read-out and setting: in the case of `Cc1cc(Nc2cccc(S(F)(F)(F)(F)F)c2)c(S(C)(=O)=O)cc1C(=O)N=C(N)N` [Example 5, N-[5-Methanesulfonyl-2-methyl-4-(3-pentafluorosulfanylphenylamino)-benzoyl]guanidine] it was 6.4 nM; in that of `Cc1cc(-c2ccc(S(F)(F)(F)(F)F)cc2C)c(S(C)(=O)=O)cc1C(=O)N=C(N)N` [Example 11, N-(2-Methanesulfonyl-5,2′-dimethyl-4′-pentafluorosulfanylbiphenyl-4-carbonyl)guanidine], 81.5 nM.
For the molecule `Cc1cc(Nc2ccc(S(F)(F)(F)(F)F)cc2)c(S(C)(=O)=O)cc1C(=O)N=C(N)N` [Example 6, N-[5-Methanesulfonyl-2-methyl-4-(4-pentafluorosulfanylphenyl-amino)benzoyl]guanidine], the IC50 on human NHE-1 was 27.1 nM.
Take `CC(C)c1ccc(C(=O)N=C(N)N)cc1S(C)(=O)=O.CS(=O)(=O)O` [cariporide, reference compound]: in series [1], the half-life was 4.1 h.
With `Cc1cc(-c2cccc(S(F)(F)(F)(F)F)c2)c(S(C)(=O)=O)cc1C(=O)N=C(N)N` [Example 10, N-(2-Methanesulfonyl-5-methyl-3′-pentafluorosulfanylbiphenyl-4-carbonyl)guanidine], the melting point was in the range of 169 to 175 °C. Also, the IC50 at human NHE-1 is 38.8 nM.
`Cc1cc(S(=O)(=O)c2ccc(S(F)(F)(F)(F)F)cc2)c(S(C)(=O)=O)cc1C(=O)N=C(N)N` [Example 4, N-[5-Methanesulfonyl-2-methyl-4-(4-pentafluorosulfanylphenylsulfonyl)-benzoyl]guanidine]: the IC50 at human NHE-1 was determined as 4670 nM.
Turning to `Cc1cc(Oc2ccc(S(F)(F)(F)(F)F)cc2)c(S(C)(=O)=O)cc1C(=O)N=C(N)N` [Example 2, N-[5-Methanesulfonyl-2-methyl-4-(4-pentafluorosulfanylphenoxy)-benzoyl]guanidine], the IC50 at human NHE-1 was 1.9 nM.
In turn, `Cc1cc(Oc2cccc(S(F)(F)(F)(F)F)c2)c(S(C)(=O)=O)cc1C(=O)N=C(N)N` [Example 1, N-[5-Methanesulfonyl-2-methyl-4-(3-pentafluorosulfanylphenoxy)-benzoyl]guanidine] yielded a melting point of 166 to 168 °C. For the same molecule, the IC50 on human NHE-1 worked out at 3.9 nM. The half-life in series [1] was 20.2 h.
As for `Cc1cc(Sc2ccc(S(F)(F)(F)(F)F)cc2)c(S(C)(=O)=O)cc1C(=O)N=C(N)N` [Example 3, N-[5-Methanesulfonyl-2-methyl-4-(4-pentafluorosulfanylphenylsulfanyl)benzoyl]-guanidine], the IC50 on human NHE-1 is 4.7 nM.
In the case of `Cc1cc(-c2ccc(S(F)(F)(F)(F)F)cc2)c(S(C)(=O)=O)cc1C(=O)N=C(N)N` [Example 9, N-(2-Methanesulfonyl-5-methyl-4′-pentafluorosulfanylbiphenyl-4-carbonyl)guanidine], the melting point was 238 to 240 °C. For the same molecule, the IC50 at human NHE-1 came out at 2.1 nM. Further, the half-life in series [1] was 39.9 h.
